Assay results: US6774109B2, “Inhibition of amylin release” (Societe de Conseils de Recherches et d'Applications …, priority 1995, dated 2004)
pKi: −log10 of the molar value. Where two headings read alike, the source gives them in different places. Non-standard residues stand in square brackets, D forms with d. Residues, ends and D or L forms follow the SMILES beside them. *: point of attachment. X1 = O=C(CN1CCN(CCO)CC1)*

Key:
[1] = biological target: human SSTR-2 (Homo sapiens, UniProt P30874); test: Human SSTR-2 binding assay (transfected CHO-K1 cells)
Protocol: CHO-K1 (ovary, Chinese hamster) cells were obtained from the American Type Culture Collection, Rockville, Md. […] The cells were grown and maintained in Ham's F12 media (Gibco BRL, Grand Island, N.Y.) supplemented with 10% fetal bovine serum under standard tissue culture conditions.
For transfection, the cells were seeded at a density 1×10^6/60 cm^2 plate (Baxter Scientific Products, McGaw Park, Ill.). DNA mediated transfection was carried out using the calcium phosphate co-precipitation method (Ausubel, et al., Current Protocols in Molecular Biology, John Wiley & Sons, 1987). The plasmid pRSV-neo (ATCC; ATCC No. 37198) was included as a selectable marker at 1/10 the concentration of the expression plasmid. CHO-K1 clonal cell lines that have stably inherited the transfected DNA were selected for growth in Ham's F12 media containing 10% fetal bovine serum and 0.5 mg/ml of G418 (Sigma Chemical Co., St. Louis, Mo.). The cells were ring-cloned and expanded in the same media for analysis.

[2] = biological target: T1, rat SSTR-5 (Rattus norvegicus, UniProt P30938); test: Rat SSTR-5 binding assay ([125I-Tyr11]somatostatin-14, rat olfactory bulb membranes)
T1 construct: Crude membranes were prepared by homogenization of rat olfactory bulb cells; tissue Zivic-Miller Laboratory, Inc; host or cells: rat olfactory bulb
T1 sequence (P30938 1-363): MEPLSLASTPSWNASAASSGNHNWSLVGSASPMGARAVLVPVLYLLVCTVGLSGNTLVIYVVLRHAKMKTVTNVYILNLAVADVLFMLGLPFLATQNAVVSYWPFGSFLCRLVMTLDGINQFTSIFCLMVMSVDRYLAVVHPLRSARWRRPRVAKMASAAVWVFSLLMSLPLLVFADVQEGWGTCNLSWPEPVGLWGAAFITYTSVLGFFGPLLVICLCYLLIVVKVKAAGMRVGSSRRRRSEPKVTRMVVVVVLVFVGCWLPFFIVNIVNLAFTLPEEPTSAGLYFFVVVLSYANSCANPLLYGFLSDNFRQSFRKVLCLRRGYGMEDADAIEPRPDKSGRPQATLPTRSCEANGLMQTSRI
Protocol: (§1) Crude membranes were prepared by homogenization of rat olfactory bulb cells (Zivic-Miller Laboratory, Inc., Zellenople, Pa.) in 20 ml of ice-cold 50 mM Tris-HCl with a POLYTRON homogenizer (setting 6, 15 sec). Buffer was added to obtain a final volume of 40 ml, and the homogenate was centrifuged in a Sorval SS-34 rotor at 39,000 g for 10 min at 0-4° C. The resulting supernatant was decanted and discarded. The pellet was rehomogenized in ice-cold buffer, diluted, and centrifuged as before. The final pellet was resuspended in the 10 mM Tris HCl and held on ice for the receptor binding assay.
(§2) The final assay volume was 0.3 ml. The incubations were terminated by rapid filtration through GF/C filters (pre-soaked in 0.3% polyethylenimine for 30 min) using a Brandel filtration manifold. Each tube and filter were then washed three times with 5 ml aliquots of ice-cold buffer.

[3] = tested on: rat SSTR-5; test: as above; details: rat SSTR-2 Ki / rat SSTR-5 Ki
Protocol: as §1, §2

[4] = biological target: T2, human SSTR-5 (Homo sapiens, UniProt P35346); test: Human SSTR-5 binding assay (transfected CHO-K1 cells); details: for SSTR-2/SSTR-5 (ratio of Ki's): human SSTR-2 Ki / human SSTR-5 Ki
T2 construct: expressed in transfected cells
Excerpt: The human SSTR-5 cDNA clone has been described in the literature. See Panetta, et al., Mol Pharmacol., 45:417-427 (1994); O'Carroll, et al., Mol Pharmacol, 46:291-298 (1994); Yamada, et al., Biochem. Biophys. Res. Commun., 195:844 (1993) [FIG. 1 depicts the DNA sequence of the human SSTR-5.] Using a sense 5′-oligonucleotide primer, immediately preceeding the start codon (residue 30-50), and an antisense 3′-oligonucleotide primer, immediately preceeding the stop codon (residues 1180-1200), a 1170 base pair fragment comprising the full-length coding sequence of the receptor was obtained by standard Reverse-transcription PCR. See Yamada, et al., Biochem. Biophys. Res. Commun., 195:844 (1993) [FIG. 1 depicts the DNA sequence of the human SSTR-5]; Innis, et al., PCR Protocols, A Guide to Methods and Applications, Academic Press, 1990. The identity of the cDNA fragment was verified by DNA sequencing using the dideoxy-chain termination method [Sanger, et al., Proc Natl Acad Sci USA., 74:5463 (1977)] with the Sequenase kit (United States Biochemicals, Arlington Heights, Ill.).
The human SSTR-5 cDNA fragment was inserted into a mammalian expression vector, pCMV to generate the expression plasmid pCMV-human SSTR-5 by blunt-end ligation.
Membranes from the stably transfected cell line were used in the rat SSTR-5 binding protocol described above.

[5] = biological target: T3, rat SSTR-2 (Rattus norvegicus, UniProt P30680); test: Rat SSTR-2 binding assay ([125I-Tyr]MK-678, AR42J cell membranes)
T3 construct: Crude membranes were prepared by homogenizing AR42J cells; host or cells: AR42J rat pancreatic acinar tumor cells
Protocol: Crude membranes were prepared by homogenizing AR42J cells (ATCC, Rockville, Md.; ATCC No. CRL1992) in 20 ml of ice-cold 50 mM Tris-HCl (Buffer A) with a POLYTRON homogenizer (Brinkmann Instruments, Westbury, N.Y.) at setting 6, for 15 sec. Additional Buffer A was added to obtain a final volume of 40 ml, and the homogenate was centrifuged in a Sorval SS-34 rotor (DuPont, Newtown, Conn.) at 39,000 g for 10 min at 0-4° C. The resulting supernatant was decanted and discarded. The pellet was rehomogenized in ice-cold Buffer A, diluted, and centrifuged as before. The final pellet was resuspended in the 10 mM Tris HCl and held on ice for the receptor binding assay.
Aliquots of the membrane preparation were incubated for 90 min at 25° C. with 0.05 nM [^125I-Tyr]MK-678 (2000 Ci/mmol) in 50 mM HEPES (pH 7.4) containing a test peptide of various concentrations (e.g., 10^−11 to 10^−6 M), 10 mg/ml bovine serum albumin (fraction V) (Sigma Chemical Co., St. Louis, Mo.), MgCl2 (5 mM), Trasylol (200 KIU/ml), bacitracin (0.02 mg/ml), and phenylmethyl-sulphonyl fluoride (0.02 mg/ml). The final assay volume was 0.3 ml. The incubations were terminated by rapid filtration through GF/C filters (pre-soaked in 0.3% polyethylenimine for 30 min) using a filtration manifold (Brandel, Gaithersburg, Md.).

[6] = tested on: rat Pancreas cells; test: Amylin release inhibition assay using rat pancreas cells (isolated perfused pancreas); format: cell-based; details: 16.7 mM glucose, 10 nM test compound
Protocol: Sprague-Dawley rats (male, 200-300 g) (Harlan-Olac, Bicester, Oxon, UK) were anaesthetized with sodium pentobarbitone (60 mg/kg). […] The pancreases were perfused, as described in Dunmore, et al., J. Endocrinol., 1993, 137, 375-381, with modified Krebs-Ringer bicarbonate buffer containing 3% dextran T40 (Pharmacia, Milton Keynes, Bucks, UK) and 1% high purity bovine serum albumin (Sigma, Poole, Dorset, UK). After an initial 15-min period to allow for stabilization, the isolated pancreases were perfused at sequential 10 min. intervals, at a rate of 4.5-5.0 ml/min, with the following buffer compositions: 1) Buffer 1: Krebs-Ringer bicarbonate buffer containing 5.6 mM glucose (to examine baseline amylin secretion); 2) Buffer 2: Krebs-Ringer bicarbonate buffer containing 16.7 mM glucose (to examine high glucose stimulated secretion); 3) Buffer 3: Krebs-Ringer bicarbonate buffer containing 16.7 mM glucose in the presence of 10 nM of test compound (to examine the activity of test compounds on high glucose stimulated amylin secretion); and 4) Buffer 2: Krebs-Ringer bicarbonate buffer containing 16.7 mM glucose (to re-examine high glucose stimulated amylin secretion in order to assess the reversibility of the activity of the test compounds).
Fractions of the perfusate were collected on ice every minute in the presence of 400 KIU/ml aprotinin (Bayer, Hayward's Heath, W. Sussex, UK). Fractions were stored at −20° C. until assay. Perfusates collected were divided into 3×1.5 ml aliquots and assayed for amylin by radioimmunoassay as described in Dunmore, et al., J. Endocrinol., 1993, 137:375. Amylin was assayed using reagents supplied by Peninsula Laboratories Ltd. (St. Helens, Merseyside, UK). These reagents include ^125I-labelled amylin, rabbit anti-rat amylin antibody, and rat amylin. Bound amylin was precipitated using goat anti-rabbit second antibody—coupled cellulose (Sac-Cal, IDS, Boldon, Tyneawear, UK).

[7] = rat, AR42J cell membranes, radioligand [125I-Tyr]MK-678 0.05 nM, read-out: Ki SSTR-2

T2 sequence (P35346 whole entry): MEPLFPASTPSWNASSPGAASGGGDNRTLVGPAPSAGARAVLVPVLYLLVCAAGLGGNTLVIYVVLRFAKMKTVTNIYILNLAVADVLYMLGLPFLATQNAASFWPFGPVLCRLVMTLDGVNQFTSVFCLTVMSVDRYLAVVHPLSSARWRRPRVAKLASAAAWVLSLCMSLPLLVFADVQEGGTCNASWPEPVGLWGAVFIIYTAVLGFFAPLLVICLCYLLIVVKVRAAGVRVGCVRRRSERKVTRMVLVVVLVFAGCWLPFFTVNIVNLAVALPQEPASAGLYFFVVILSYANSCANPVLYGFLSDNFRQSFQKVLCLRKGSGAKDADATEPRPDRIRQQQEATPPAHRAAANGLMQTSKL
T3 sequence (P30680 whole entry): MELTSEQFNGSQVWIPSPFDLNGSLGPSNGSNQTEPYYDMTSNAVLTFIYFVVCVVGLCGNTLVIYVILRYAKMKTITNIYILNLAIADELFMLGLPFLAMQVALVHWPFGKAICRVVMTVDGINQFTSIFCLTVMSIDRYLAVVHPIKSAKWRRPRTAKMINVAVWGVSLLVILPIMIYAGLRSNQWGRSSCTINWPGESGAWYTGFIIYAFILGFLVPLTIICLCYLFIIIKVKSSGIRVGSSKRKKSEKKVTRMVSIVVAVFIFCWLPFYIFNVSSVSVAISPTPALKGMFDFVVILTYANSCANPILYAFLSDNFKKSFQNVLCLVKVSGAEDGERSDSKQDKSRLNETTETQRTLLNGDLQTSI
human SSTR-2, sequence (P30874 whole entry): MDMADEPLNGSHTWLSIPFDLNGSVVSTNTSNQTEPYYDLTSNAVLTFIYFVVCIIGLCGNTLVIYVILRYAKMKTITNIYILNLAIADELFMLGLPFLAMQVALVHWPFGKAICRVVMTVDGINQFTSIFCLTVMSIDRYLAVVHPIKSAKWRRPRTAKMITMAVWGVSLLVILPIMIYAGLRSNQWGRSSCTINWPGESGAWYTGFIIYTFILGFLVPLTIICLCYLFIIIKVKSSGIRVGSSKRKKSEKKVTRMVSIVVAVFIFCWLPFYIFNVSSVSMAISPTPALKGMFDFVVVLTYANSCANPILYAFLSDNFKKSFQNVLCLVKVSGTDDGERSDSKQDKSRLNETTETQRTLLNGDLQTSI

Molecule	pKi [1]	pKi ([2]; read-out: Ki SSTR-5)	SSTR-2/SSTR-5 (ratio of Ki's) [3]	pKi [4]	SSTR-2/SSTR-5 (ratio of Ki's) [4]	pKi [5, 7]	pKi ([4]; human receptor in CHO-K1 cells, LC 0.05 nM, LEC 0.18 nM, read-out: Ki SSTR-5)	pKi [2]	pKi [5]	effect on glucose-induced amylin secretion (in words) [6]	decrease in glucose stimulated amylin secretion [6]
C[C@@H](O)[C@H](NC(=O)[C@H](Cc1ccccc1)NC(=O)[C@@H](NC(=O)[C@H](CCCCN)NC(=O)[C@@H](Cc1c[nH]c2ccccc12)NC(=O)[C@H](Cc1ccccc1)NC(=O)[C@H](Cc1ccccc1)NC(=O)[C@H](N)Cc1ccccc1)[C@@H](C)O)C(=O)O [Analog I, H-D-Phe-Phe-Phe-D-Trp-Lys-Thr-Phe-Thr-OH] (H-[dF]FF[dW]KTFT-OH)	7.85	8.45	10.4	7.91	1.14	7.43					
C[C@@H](O)[C@H](NC(=O)[C@H](Cc1ccccc1)NC(=O)[C@@H](NC(=O)[C@H](CCCCN)NC(=O)[C@@H](Cc1c[nH]c2ccccc12)NC(=O)[C@H](Cc1ccccc1)NC(=O)[C@H](Cc1ccccc1)NC(=O)[C@@H](Cc1ccccc1)NC(=O)CN1CCN(CCO)CC1)[C@@H](C)O)C(N)=O [Analog II] (X1-[dF]FF[dW]KTFT-NH2)	8.38	8.27				6.52	8.89				
CC(C)[C@@H]1NC(=O)[C@H](CCCCN)NC(=O)[C@@H](Cc2c[nH]c3ccccc23)NC(=O)[C@H](Cc2ccc(O)cc2)NC(=O)[C@@H](NC(=O)[C@H](N)Cc2ccc3ccccc3c2)CSSC[C@@H](C(=O)N[C@H](C(N)=O)[C@@H](C)O)NC1=O [BIM-23014, H-D-P-Nal-Cys-Tyr-D-Trp-Lys-Val-Cys-Ser-NH2, reference compound]	8.96							7.19	9.47	no effect	
C[C@@H](O)[C@H](NC(=O)[C@H](Cc1ccccc1)NC(=O)[C@@H](NC(=O)[C@H](CCCCN)NC(=O)[C@@H](Cc1c[nH]c2ccccc12)NC(=O)[C@H](Cc1ccccc1)NC(=O)[C@H](Cc1ccccc1)NC(=O)[C@H](N)Cc1ccccc1)[C@@H](C)O)C(N)=O [BIM-23052, H-D-Phe-Phe-Phe-D-Trp-Lys-Thr-Phe-Thr-NH2] (H-[dF]FF[dW]KTFT-NH2)	7.85	8.50	2.54		11.5				8.09		78%
C[C@@H](O)[C@@H]1NC(=O)[C@H](CCCCN)NC(=O)[C@@H](Cc2c[nH]c3ccccc23)NC(=O)[C@H](Cc2ccccc2)NC(=O)[C@@H](NC(=O)[C@H](N)Cc2ccccc2)CSSC[C@@H](C(=O)N[C@H](CO)[C@@H](C)O)NC1=O [SMS 201-995, H-D-Phe-Cys-Phe-D-Trp-Lys-Thr-Cys-Threoninol, reference compound]								8.04			
Somatostatin-14 [reference compound]			0.34		0.20					inhibited glucose-induced amylin secretion	
